From patent publication US12606561B2, “Substituted pyrazolo[1,5-a][1,3,5]triazines as CDK inhibitors” (QURIENT CO., LTD., priority 2018, dated 2026)

Tests used:
CDK5/p25 = target: T1, CDK5/p25 (Homo sapiens, UniProt Q00535); test: Enzymatic assay for CDK5 (LANCE Ultra kinase assay, FRET based); type: biochemical; conditions: ATP at Km
T1 construct: purchased Invitrogen PR8543B
Outline: (§1)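 TR-FRET kinase assay at ATP Km with ULight-MBP peptide (68 nM) and Eu-anti-phospho-MBP antibody; CDK2/Cyclin A at […], CDK5/p25 at […]. 8-dose 4-fold compound dilutions; 60 min kinase reaction at 23° C., EDTA stop, 60 min detection, read at 615/665 nm.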

CDK7/Cyclin H/MNAT1 = target: T2, CDK7/Cyclin H/MNAT1 (Homo sapiens, UniProt P50613); test: Enzymatic assay for CDK7 (LANCE Ultra kinase assay, FRET based); type: biochemical; conditions: for IC50: ATP at Km
T2 construct: purchased Invitrogen PR6749B
T2 sequence (P50613 whole entry): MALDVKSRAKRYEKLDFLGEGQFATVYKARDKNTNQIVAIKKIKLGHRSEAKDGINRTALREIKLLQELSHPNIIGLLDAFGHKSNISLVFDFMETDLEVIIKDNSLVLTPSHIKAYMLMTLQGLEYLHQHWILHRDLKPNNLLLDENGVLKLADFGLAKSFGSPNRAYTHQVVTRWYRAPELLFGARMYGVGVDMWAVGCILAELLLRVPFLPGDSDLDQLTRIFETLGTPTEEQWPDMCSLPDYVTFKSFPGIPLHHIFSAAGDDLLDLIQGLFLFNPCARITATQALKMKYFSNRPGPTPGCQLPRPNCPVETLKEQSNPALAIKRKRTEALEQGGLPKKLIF
T2 sequence (P51946 whole entry partner): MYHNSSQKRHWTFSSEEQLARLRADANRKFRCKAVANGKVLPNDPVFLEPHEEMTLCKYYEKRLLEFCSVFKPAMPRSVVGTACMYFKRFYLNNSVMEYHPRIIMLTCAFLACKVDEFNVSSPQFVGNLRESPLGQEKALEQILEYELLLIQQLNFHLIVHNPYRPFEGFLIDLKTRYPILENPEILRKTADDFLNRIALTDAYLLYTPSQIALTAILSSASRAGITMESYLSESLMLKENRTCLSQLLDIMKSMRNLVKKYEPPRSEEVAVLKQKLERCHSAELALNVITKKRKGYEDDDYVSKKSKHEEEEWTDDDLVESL
T2 sequence (P51948 whole entry partner): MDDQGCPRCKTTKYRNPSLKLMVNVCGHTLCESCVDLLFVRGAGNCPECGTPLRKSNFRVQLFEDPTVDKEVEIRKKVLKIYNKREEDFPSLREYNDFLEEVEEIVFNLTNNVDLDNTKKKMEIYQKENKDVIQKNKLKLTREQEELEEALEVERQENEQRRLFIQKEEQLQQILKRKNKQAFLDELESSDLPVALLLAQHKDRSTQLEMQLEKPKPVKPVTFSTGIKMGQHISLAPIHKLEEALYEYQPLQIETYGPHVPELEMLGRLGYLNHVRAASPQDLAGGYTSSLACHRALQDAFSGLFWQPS
Outline: (§2)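 With ATP set at its Km, compounds were tested against purified CDK/cyclin complexes phosphorylating a ULight-labeled peptide. Signal came from FRET between the peptide and a Europium-labeled anti-phospho-antibody.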

CDK2/Cyclin A = target: T3, CDK2/Cyclin A (Homo sapiens, UniProt P24941); test: Enzymatic assay for CDK2 (LANCE Ultra kinase assay, FRET based); type: biochemical; conditions: ATP at Km
T3 construct: purchased Invitrogen PV6290
Outline: as §1

CDK1/Cyclin B = target: T4, CDK1/Cyclin B (Homo sapiens, UniProt P06493); test: Enzymatic assay for CDK1 (LANCE Ultra kinase assay, FRET based); type: biochemical; conditions: ATP at Km; read-out: CDK1 enzymatic activity IC50
T4 construct: purchased Invitrogen PR4768C
T4 sequence (P06493 whole entry): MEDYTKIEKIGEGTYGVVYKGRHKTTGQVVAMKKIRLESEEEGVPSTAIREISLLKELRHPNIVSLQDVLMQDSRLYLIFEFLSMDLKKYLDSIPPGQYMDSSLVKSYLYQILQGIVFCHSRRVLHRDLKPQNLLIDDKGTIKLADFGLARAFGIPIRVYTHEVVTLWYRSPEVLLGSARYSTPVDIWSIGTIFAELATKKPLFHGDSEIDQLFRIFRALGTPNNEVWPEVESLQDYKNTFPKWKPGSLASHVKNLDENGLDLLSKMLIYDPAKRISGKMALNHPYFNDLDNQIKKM
T4 sequence (P14635 whole entry partner): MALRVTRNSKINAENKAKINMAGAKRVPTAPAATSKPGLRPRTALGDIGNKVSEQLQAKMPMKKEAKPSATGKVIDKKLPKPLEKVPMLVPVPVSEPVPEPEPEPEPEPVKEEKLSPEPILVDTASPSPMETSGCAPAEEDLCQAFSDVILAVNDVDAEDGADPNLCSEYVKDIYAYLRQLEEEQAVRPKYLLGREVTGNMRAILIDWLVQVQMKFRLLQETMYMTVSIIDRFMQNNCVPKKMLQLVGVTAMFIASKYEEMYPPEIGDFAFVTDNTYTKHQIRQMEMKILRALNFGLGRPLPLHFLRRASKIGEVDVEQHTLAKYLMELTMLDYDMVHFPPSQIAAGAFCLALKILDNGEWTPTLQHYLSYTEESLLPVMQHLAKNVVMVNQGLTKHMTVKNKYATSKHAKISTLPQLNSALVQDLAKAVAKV
Outline: as §2

OVCAR-3 = OVCAR-3 viability assay (CellTiter-Glo, 72 hours); type: cell-based; conditions: Homo sapiens; OVCAR-3 cells
Protocol: Human […] cell line, MV4-11_(ATCC, Cat #CRL-9591), NSCLC (Non-small cell lung cancer) cell line H460 (ATCC, Cat #HTB-177), A2780 (ECACC, Cat #93112519) and OVCAR-3(ATCC, Cat #HTB-161) were obtained from ATCC. Cells were grown in RPMI-1640 media (Invitrogen, Cat #22400-089) supplemented with 10% FBS (Invitrogen, Cat #10099141) and 1% penicillin/streptomycin (Invitrogen, Cat #15070063) and cultured at 37° C., 5% CO2 in a humidified chamber. All cell lines were routinely tested for mycoplasma.
To effect of the CDK7 inhibitor to inhibit the growth of target cancer cells, viability assay were conducted a 72 hour time period. Briefly, the candidate cell line was plated in 96 well plate at the following density of cells respectively. 1×10^4 cells/well for MV4-11, 5×10^3 for H460 and OVCAR-3, and 1×10^3 for A2780. After 24 hours, the cells were treated with various concentrations of the compound (ranging from 0.0015 uM to 10 uM). DMSO solvent without compound served as a control and final DMSO concentration lest than 0.1%. After 72 hours of incubation at 37° C., 5% CO2 incubator, cells were analyzed for the viability using the CellTiter-Glo Luminescent Cell Viability Assay (Promega, Cat #G7570). All viability assays were performed in duplicate and Luminescence was read using an Envision (Perkin Elmer, USA). Data was analyzed using XLfit software.

A2780 = A2780 viability assay (CellTiter-Glo, 72 hours); type: cell-based; conditions: Homo sapiens; A2780 cells
Outline: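 After a 24 h attachment period, cells received a 0.0015–10 uM compound titration and were incubated 72 h at 37° C, 5% CO2. Viability came from CellTiter-Glo luminescence measured in duplicate.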

T1 sequence (Q00535 whole entry): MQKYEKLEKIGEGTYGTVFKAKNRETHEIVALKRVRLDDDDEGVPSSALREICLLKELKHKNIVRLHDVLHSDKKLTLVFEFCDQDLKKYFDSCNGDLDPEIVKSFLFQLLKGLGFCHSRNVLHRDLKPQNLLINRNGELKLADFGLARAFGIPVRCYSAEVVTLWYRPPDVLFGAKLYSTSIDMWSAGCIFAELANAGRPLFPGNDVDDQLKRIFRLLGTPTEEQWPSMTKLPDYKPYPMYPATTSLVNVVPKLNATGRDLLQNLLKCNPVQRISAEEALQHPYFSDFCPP
T1 sequence (Q15078 99-307 partner limits assumed): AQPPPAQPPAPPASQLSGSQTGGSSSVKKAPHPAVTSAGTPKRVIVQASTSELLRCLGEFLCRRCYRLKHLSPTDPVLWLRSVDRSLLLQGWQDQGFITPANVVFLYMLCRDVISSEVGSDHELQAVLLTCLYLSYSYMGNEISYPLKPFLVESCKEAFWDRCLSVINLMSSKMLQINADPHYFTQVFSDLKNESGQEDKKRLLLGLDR

IC50 (CDK5/p25) | IC50 (CDK7/Cyclin H/MNAT1) | CDK1/CDK7: Selectivity of CDK7 inhibition over CDK1 inhibition (CDK7/Cyclin H/MNAT1) | CDK2/CDK7: Selectivity of CDK7 inhibition over CDK2 inhibition (CDK7/Cyclin H/MNAT1) | CDK5/CDK7: Selectivity of CDK7 inhibition over CDK5 inhibition (CDK7/Cyclin H/MNAT1) | IC50 (CDK2/Cyclin A) | IC50 (CDK1/Cyclin B) | IC50 (OVCAR-3) | IC50 (A2780) | Structure (SMILES)
> 1000 nM | 100 to 1000 nM | B (B indicates 50 < [fold] ≤ 500) | B (B indicates 50 < [fold] ≤ 500) | B (B indicates 50 < [fold] ≤ 500) | > 1000 nM | > 1000 nM | < 1000 nM | < 1000 nM | C=C(F)C(=O)Nc1ccc2c(-c3ccccc3CNc3nc(NC4CCC(OC)C4)nc4c(C(C)C)cnn34)nccc2c1 (racemic) [Compound 98]
> 1000 nM | 100 to 1000 nM | B (B indicates 50 < [fold] ≤ 500) | B (B indicates 50 < [fold] ≤ 500) | B (B indicates 50 < [fold] ≤ 500) | > 1000 nM | > 1000 nM | < 1000 nM | < 1000 nM | C=C(F)C(=O)Nc1ccc2c(-c3ccccc3CNc3nc(NC4CCC(OC)C4)nc4c(C(C)C)cnn34)nccc2c1 (single isomer, unassigned) [Compound 97]
> 1000 nM | 100 to 1000 nM | B (B indicates 50 < [fold] ≤ 500) | B (B indicates 50 < [fold] ≤ 500) | B (B indicates 50 < [fold] ≤ 500) | > 1000 nM | > 1000 nM | < 1000 nM | < 1000 nM | C=C(F)C(=O)Nc1ccc2c(-c3ccccc3CNc3cc(NC4CCC(OC)CC4)nc4c(C(C)C)cnn34)nccc2c1 (stereo not drawn) [Compound 81]
> 1000 nM | 100 to 1000 nM | B (B indicates 50 < [fold] ≤ 500) | B (B indicates 50 < [fold] ≤ 500) | B (B indicates 50 < [fold] ≤ 500) | > 1000 nM | > 1000 nM | < 1000 nM | < 1000 nM | C=C(F)C(=O)Nc1ccc2c(-c3ccccc3CNc3nc(NC4CCC(OC)CC4)nc4c(C(C)C)cnn34)nccc2c1 (stereo not drawn) [Compound 84]
> 1000 nM | 100 to 1000 nM | B (B indicates 50 < [fold] ≤ 500) | B (B indicates 50 < [fold] ≤ 500) | B (B indicates 50 < [fold] ≤ 500) | > 1000 nM | > 1000 nM | < 1000 nM | < 1000 nM | C=C(F)C(=O)Nc1ccc2c(-c3ccccc3CNc3nc(N4CCC(OC)CC4)nc4c(C(C)C)cnn34)nccc2c1 [Compound 88]

Further lines, the compound ahead of its results:

Structure (SMILES) | IC50 (CDK5/p25) | IC50 (CDK7/Cyclin H/MNAT1) | CDK1/CDK7: Selectivity of CDK7 inhibition over CDK1 inhibition (CDK7/Cyclin H/MNAT1) | CDK2/CDK7: Selectivity of CDK7 inhibition over CDK2 inhibition (CDK7/Cyclin H/MNAT1) | CDK5/CDK7: Selectivity of CDK7 inhibition over CDK5 inhibition (CDK7/Cyclin H/MNAT1) | IC50 (CDK2/Cyclin A) | IC50 (CDK1/Cyclin B) | IC50 (OVCAR-3) | IC50 (A2780)
C=C(F)C(=O)Nc1ccc2c(-c3ccccc3CNc3nc(NCC4CNCCO4)nc4c(C(C)C)cnn34)nccc2c1 (racemic) [Compound 80] | > 1000 nM | < 100 nM | A (A indicates [fold] > 500) | A (A indicates [fold] > 500) | A (A indicates [fold] > 500) | > 1000 nM | > 1000 nM | < 1000 nM | < 1000 nM
C=C(F)C(=O)Nc1ccc2c(-c3ccccc3CNc3nc(-c4cccc(OC5CCNC5)c4)nc4c(C(C)C)cnn34)nccc2c1 (racemic) [Compound 87] | > 1000 nM | < 100 nM | A (A indicates [fold] > 500) | A (A indicates [fold] > 500) | A (A indicates [fold] > 500) | > 1000 nM | > 1000 nM | < 1000 nM | < 1000 nM
C=C(F)C(=O)Nc1ccc2c(-c3ccccc3CNc3cc(NC[C@H]4CCNC[C@@H]4O)nc4c(C(C)C)cnn34)nccc2c1 [Compound 82] | > 1000 nM | < 100 nM | A (A indicates [fold] > 500) | A (A indicates [fold] > 500) | A (A indicates [fold] > 500) | > 1000 nM | > 1000 nM | < 1000 nM | < 1000 nM
C=C(F)C(=O)Nc1ccc2c(-c3ccccc3CNc3nc(NC[C@H]4CNC[C@@H]4O)nc4c(C(C)C)cnn34)nccc2c1 [Compound 83] | > 1000 nM | < 100 nM | A (A indicates [fold] > 500) | A (A indicates [fold] > 500) | A (A indicates [fold] > 500) | > 1000 nM | > 1000 nM | < 1000 nM | < 1000 nM
C=C(F)C(=O)Nc1ccc2c(-c3ccccc3CNc3nc(N4CCC(OCC)CC4)nc4c(C(C)C)cnn34)nccc2c1 [Compound 85] | > 1000 nM | 100 to 1000 nM | B (B indicates 50 < [fold] ≤ 500) | B (B indicates 50 < [fold] ≤ 500) | B (B indicates 50 < [fold] ≤ 500) | > 1000 nM | > 1000 nM | < 1000 nM | < 1000 nM
C=C(F)C(=O)Nc1ccc2c(-c3ccccc3CNc3nc(N4CCC(OC(F)(F)F)CC4)nc4c(C(C)C)cnn34)nccc2c1 [Compound 86] | > 1000 nM | > 1000 nM | C (C indicates [fold] ≤ 50) | C (C indicates [fold] ≤ 50) | C (C indicates [fold] ≤ 50) | > 1000 nM | > 1000 nM | < 1000 nM | 1000 to 10000 nM
